# Measurements published in patent publication US9511072B2, “Methods of modulating cell proliferation and cyst formation in polycystic kidney and liver diseases” (The Medical College of Wisconsin, Inc., priority 2006, dated 2016).
# Entries after “also recorded” stand apart in the source; their conditions may differ.
# Tests used:
# [1] = system: EGF receptor (EGFR) phosphorylation in REC12 cells; assay: Western blot of phosphorylated EGFR in normal REC12 cells; format: cell-based, mouse; conditions: 10 μM, REC12 normal renal epithelial cells
# Source text: REC11 cystic cell line is a conditionally immortalized epithelial collecting tubule (CT) cell line derived from the cystic kidneys of the BPK mouse model of human ARPKD crossed to the ImmortoMouse. The BPK mouse as a human ARPKD model has been described in Nauta J. et al., Pediatr Nephrol 1993, 7:163-172 and Nauta J. et al., Pediatr Res 1995, 37:755-763. The procedures for immortalization, cell isolation, cell culture and the complete phenotypic characterization of this cell line have been described in detail in Sweeney W. E. et al., Am J Physiol C Physiol 2001, 281:C1695-705. All analysis and experiments were performed on REC11 cells grown for a minimum 6 days under non-permissive conditions to eliminate residual Large T. REC12 cell line is a conditionally immortalized epithelial collecting tubule (CT) cell line derived from the wild-type Balb/C littermates. The Balb/C is the strain of mice in which the BPK mutation arose (Nauta J. et al., Pediatr Nephrol 1993, 7:163-172 and Nauta J. et al., Pediatr Res 1995, 37:755-763).
# REC11 cells (FIG. 2, lanes A and B) and control renal epithelial cells (REC12 cells: FIG. 2, lanes C and D) were grown for 10 days. Next, the cells were exposed to vehicle (lanes A and C) or 10 μM HET0016 (lanes B and D) and then harvested for assessment of the expression of phosphorylated EGFR by Western Blot analysis.
# Balb/C mice = assay: Chronic HET-0016 treatment of non-cystic Balb/C mice; format: in vivo, mouse; conditions: 10 mg/kg/day i.p.
# [2] = system: cystic BPK renal epithelial cells; assay: Cell counting of cystic BPK renal epithelial cells; format: cell-based, mouse; conditions: 10 μM added daily, day 2, non-permissive conditions
# Method: (§1) For the cell counting experiments, the non-cystic Balb/C (+/+) and cystic BPK renal epithelial cells were seeded in 6-well dishes and changed into media lacking γ-IFN at 37° C. (non-permissive conditions) for at least 6 additional days prior to assessing any phenotypic analyses to ensure the loss of the T antigen (Sweeney W E et al. Am J Physiol Cell Physiol, 281:C1695-705, 2001). Cells were harvested by tryptic digestion and counted by light microscopy using a hemocytometer.
# (§2) The cells in this experiment were transduced using the lentiviral vectors in the presence of γ-IFN (i.e., permissive state) and allowed to expand. Once the cells were expanded, the transduced cells were grown in the absence of γ-IFN (i.e., non-permissive state) for 10 days. The cells were harvested and counted to initiate the proliferation experiment.
# cystic BPK cells = assay: BrdU incorporation in cystic BPK cells; format: cell-based, mouse; conditions: 36 hours, vehicle 118
# Method: To determine the level of proliferation in the cystic BPK cells, chemically dissimilar inhibitors of cytochrome P450 4A (CYP4A) and 4F (CYP4F) inhibitors, specifically HET-0016 (10 and 20 μM) and DDMS (10 μM), were incubated for 36 hours with the BPK cells. Three hours prior to the harvesting of the cells, 5-bromo-2′-deoxyuridine (BrdU) at a concentration of 30 μM was added to determine the level of cell cycle inhibition. The cells were subsequently methanol fixed and BrdU-positive cells were identified by immunohistology with biotinylated monoclonal anti-BrdU antibody (Zymed, South San Francisco, Calif.). Data were expressed as the percentage of BrdU-labeled cells per 500 counted cells.
# [3] = system: Cyp4a12-expressing Balb/C cells; assay: Cell counting of Cyp4a12-transduced non-cystic Balb/C cells; format: cell-based, mouse; conditions: 10 μM
# Method: as §1, §2
# There was no significant difference (P>0.05) between Balb/C cells treated with vehicle or the EGFP-transduced lentiviral vectors.
# [4] = system: EGFR phosphorylation in BPK renal tissues; assay: Western blot of EGFR phosphorylation in BPK renal tissue after chronic treatment; format: in vivo, mouse; conditions: BPK mice, ip 10 mg/Kg/day, PN-7 to PN-20, medulla region
# Source text: The BPK model, a murine model of ARPKD, arose as a spontaneous mutation in an inbred colony of Balb/c mice and has been extensively characterized (Nauta J et al. Pediatr Nephrol 1993, 7:163-72; Nauta J et al. Pediatr Res 1995, 37:755-63; and Sweeney W E et al. Kidney Int 2003, 64:1310-9). Affected animals die at postnatal day (PN) 24 (average) with a range of PN-21 to PN-29 days. Extrarenal manifestations include biliary proliferation and ductal ectasia (BDE). Balb/c controls were utilized in all experiments. All animal experiments were conducted in accordance with policies of the NIH Guide for the Care and Use of Laboratory Animals and the Institutional Animal Care and Use Committee (IACUC) of the Medical College of Wisconsin. Western blot analysis of EGFR phosphorylation was conducted for BPK renal tissues following 13 days (PN-7 to PN-20) of treatment with vehicle (ip) (lane A of FIG. 10) or HET0016 (ip, 10 mg/Kg/day) (lane B or FIG. 10). […] The reduced phosphorylation of the EGFR directly correlates with the reduced size of the HET0016-treated cystic kidney, reduced KW/BW ratio, and improved morphology of the HET0016-treated cystic kidney observed in the immunohistochemistry study described above in Example 3.
# cystic PCK CT cells = assay: BrdU proliferation of primary cystic PCK collecting tubule cells; format: cell-based, rat; conditions: 10 μM, 36 hours; vehicle 28.5%±1%
# Method: Renal CT cells from the PCK rat were isolated as described in Sweeney W. E. et al., Am J Physiol C Physiol, 2001, 281:C1695-705, using monoclonal F-13 a principal cells specific surface marker (Fejes-Toth N et al., J Tiss Cult Meth 1991, 13:179-184).
# To determine the level of proliferation in the cystic PCK CT cells, the cells were incubated with HET-0016 (10 μM) or vehicle for 36 hours. Three hours prior to the harvesting of the cells, 5-bromo-2′-deoxyuridine (BrdU) at a concentration of 30 μM was added to determine the level of cell cycle inhibition. The cells were subsequently methanol fixed and BrdU-positive cells were identified by immunohistology with biotinylated monoclonal anti-BrdU antibody (Zymed, South San Francisco, Calif.). Data were expressed as the percentage of BrdU-labeled cells per 500 counted cells. In the vehicle treated group, 28.5%±1% (n=3) were labeled with BrdU. In the HET-0016 treated group, 10.8%±1% (n=3) were labeled with BrdU.
# 20-HETE = conditions: cited from earlier work
# [5] = Balb/c (+/+), post-natal day 7-20, day 21
substance,measurement,setting,value
N-hydroxy-N-(4-butyl-2-methylphenyl)-formamidine [HET0016],phosphorylation of EGFR,[1],but not in normal renal epithelial cells; also recorded: lack of an effect
same,"kidney weight, body weight and KW/BW ratio vs vehicle",Balb/C mice; Balb/C mice,unchanged
same,Body weight,Balb/C mice; [5],10.5 ± 1.3 g
same,KW/BW,Balb/C mice; [5],1.3 ± 0.2 %
same,Kidney Weight,Balb/C mice; [5],0.13 ± 0.02 g
same,number of cystic BPK cells,[2],"40,744±4,322"
same,BrdU-positive cells per 500 total cells counted,cystic BPK cells; 10 μM,52 BrdU(+) cells
same,BrdU-positive cells per 500 total cells counted,cystic BPK cells; 20 μM,38 BrdU(+) cells
same,increased cell proliferation of Balb/C cells over-expressing Cyp4a12,[3],completely abolished the increased cell proliferation
same,number of Cyp4a12-expressing Balb/C cells,"[3]; day 3, without inhibitor 285,792±21,892","49,700±5,085"
same,phosphorylation (activation) of EGFR in renal tissue,[4],reduced the phosphorylation (activation) of EGFR
same,cells labeled with BrdU (per 500 counted cells),cystic PCK CT cells,10.8%±1%
same,20-HETE levels in vivo,20-HETE,reduce 20-HETE levels in vivo
